One experiment deals with JAK2 (Homo sapiens (Human), UniProt O60674). In words: Jak biochemical HTRF assay, JAK2. Conditions: recombinant purified GST-tagged catalytic domain, HTRF format. From the text: (§1) Jak Biochemical HTRF Assay Protocol
(§2) Subsequent reagent additions employed an Agilent Bravo.
A general note: In TR-FRET formats the signal depends on donor and acceptor labels being close together.

The next experiment deals with JAK1 (Homo sapiens (Human), UniProt P23458). In words: Jak biochemical HTRF assay, JAK1. The settings on record: recombinant purified GST-tagged catalytic domain; HTRF format; [ATP] 31.8 μM.
Text: as §1, §2

Where only a bound is given, the exact number is not on record here.

JAK1, sequence (P23458 875-1153): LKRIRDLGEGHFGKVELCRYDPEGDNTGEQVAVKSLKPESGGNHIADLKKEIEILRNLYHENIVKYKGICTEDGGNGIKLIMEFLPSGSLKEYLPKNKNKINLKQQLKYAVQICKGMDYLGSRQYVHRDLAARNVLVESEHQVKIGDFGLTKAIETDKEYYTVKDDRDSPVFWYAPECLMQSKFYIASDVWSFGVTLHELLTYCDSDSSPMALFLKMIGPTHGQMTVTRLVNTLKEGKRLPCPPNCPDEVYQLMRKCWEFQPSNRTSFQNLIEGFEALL
JAK2, sequence (O60674 849-1124): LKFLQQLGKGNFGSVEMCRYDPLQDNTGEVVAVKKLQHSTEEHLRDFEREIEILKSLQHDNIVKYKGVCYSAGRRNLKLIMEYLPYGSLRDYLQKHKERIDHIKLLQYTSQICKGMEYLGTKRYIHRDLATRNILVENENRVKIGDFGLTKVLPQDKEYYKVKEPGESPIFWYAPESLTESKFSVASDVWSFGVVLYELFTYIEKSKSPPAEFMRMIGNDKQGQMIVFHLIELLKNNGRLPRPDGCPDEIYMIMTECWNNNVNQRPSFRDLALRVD

In the case of `CC(C)(C)OC(=O)N1CC[C@H](n2cc(C(N)=O)c(Nc3ccccc3)n2)[C@H](C#N)C1` (mixture of isomers) [Example 1-1, tert-butyl(3R,4S and 3S,4R)-4-[4-(aminocarbonyl)-3-anilino-1H-pyrazol-1-yl]-3-cyanopiperidine-1-carboxylate], the IC50 came to 1270 nM at JAK2 ([ATP] […]) and 108 nM at JAK1.

Take `CC(C)(C)OC(=O)N1CC[C@@H](n2cc(C(N)=O)c(Nc3ccccc3)n2)[C@H](C#N)C1` (mixture of isomers) [Example 1-2, tert-butyl(3S,4S and 3R,4R)-4-[4-(aminocarbonyl)-3-anilino-1H-pyrazol-1-yl]-3-cyanopiperidine-1-carboxylate]: the IC50 at JAK2 ([ATP] […]) was 496 nM; at JAK1 it was 24 nM.

With `CC(C)(COC(=O)N1CC[C@@H](C#N)[C@H](n2cc(C(N)=O)c(Nc3ccc(F)cc3)n2)C1)n1cccn1` (mixture of isomers) [Example 5-92, 2-methyl-2-(1H-pyrazol-1-yl)propyl (3S,4Rand 3R, 4S)-3-{4-carbamoyl-3-[(4-fluorophenyl)amino]-1H-pyrazol-1-yl}-4-cyanopiperidine-1-carboxylate], the results for the IC50 on JAK2 ([ATP] […]) and on JAK1 were 383 nM and 27 nM, respectively.

Take `C[C@@H]1C[C@H](C#N)[C@@H](n2cc(C(N)=O)c(Nc3ccnc(F)c3)n2)CO1` (mixture of isomers) [Example 10-1, 1-((3R,4S,6R and 3S,4R,6S)-4-Cyano-6-methyltetrahydro-2H-pyran-3-yl)-3-((2-fluoropyridin-4-yl)amino)-1H-pyrazole-4-carboxamide]: the IC50 at JAK2 ([ATP] […]) was 25 nM; at JAK1, 5 nM.

For the molecule `C[C@H]1OCC[C@@H](C#N)[C@@H]1n1cc(C(N)=O)c(Nc2ccnc(F)c2)n1` (mixture of isomers) [Example 10-2, 1-((2S,3R,4S and 2R,3S,4R)-4-cyano-2-methyltetrahydro-2H-pyran-3-yl)-3-((2-fluoropyridin-4-yl)amino)-1H-pyrazole-4-carboxamide], the IC50 was determined as 206 nM at JAK2 ([ATP] […]) and 29 nM on JAK1.

Consider `CC(C)(C)OC(=O)N1CC[C@H](C#N)C(n2cc(C(N)=O)c(Nc3ccccc3)n2)C1` (mixture of isomers) [Example 1-3, tert-butyl(3R,4S and 3S,4R)-3-[4-(aminocarbonyl)-3-anilino-1H-pyrazol-1-yl]-4-cyanopiperidine-1-carboxylate], for which the IC50 is 41 nM at JAK2 ([ATP] 8.5 μM) and 5 nM at JAK1.

`CC(C)(C)OC(=O)N1CC[C@H](C#N)C(n2cc(C(N)=O)c(Nc3ccc(F)cc3)n2)C1` (mixture of isomers) [Example 2-1, tert-Butyl(3R,4S and 3S,4R)-3-{4-carbamoyl-3-[(4-fluorophenyl)amino]-1H-pyrazol-1-yl}-4-cyanopiperidine-1-carboxylate]: the IC50 turned out to be 39 nM on JAK2 ([ATP] 8.5 μM) and 6 nM at JAK1.

`N#C[C@H]1CCNCC1n1cc(C(N)=O)c(Nc2ccc(F)cc2)n1` (mixture of isomers) [Example 3-1, 1-[(3R,4S and 3S,4R)-4-cyanopiperidin-3-yl]-3-[(4-fluorophenyl)amino]-1H-pyrazole-4-carboxamide]: the IC50 on JAK2 ([ATP] 8.5 μM) was 125 nM; at JAK1, 13 nM.

As to `N#C[C@@H]1CNCC[C@H]1n1cc(C(N)=O)c(Nc2ccc(F)cc2)n1` (racemic) [Example 3-2, 1-[(3R,4R and 3S,4S)-3-cyanopiperidin-4-yl]-3-[(4-fluorophenyl)amino]-1H-pyrazole-4-carboxamide], the IC50 worked out at 81 nM on JAK2 ([ATP] 8.5 μM) and 7 nM at JAK1.

`N#C[C@@H]1CNCCC1n1cc(C(N)=O)c(Nc2ccc(F)cc2)n1` (mixture of isomers) [Example 3-3, 1-[(3R,4R and 3S,4S)-3-cyanopiperidin-4-yl]-3-[(4-fluorophenyl)amino]-1H-pyrazole-4-carboxamide]: the results for the IC50 on JAK2 ([ATP] 8.5 μM) and at JAK1 were 628 nM and 102 nM, respectively.

For the molecule `CC(OC(=O)N1CC[C@@H](n2cc(C(N)=O)c(Nc3ccc(F)cc3)n2)[C@H](C#N)C1)C(F)(F)F` (mixture of isomers) [Example 5-1, 2,2,2-Trifluoro-1-methylethyl(3R,4R and 3S,4S)-4-{4-carbamoyl-3-[(4-fluorophenyl)amino]-1H-pyrazol-1-yl}-3-cyanopiperidine-1-carboxylate], the IC50 was determined as 387 nM at JAK2 ([ATP] 8.5 μM) and 15 nM on JAK1.

With `N#C[C@@H]1CN(C(=O)OCCF)CC[C@H]1n1cc(C(N)=O)c(Nc2ccc(F)cc2)n1` (racemic) [Example 5-2, 2-fluoroethyl (3R,4R and 3S,4S)-4-{4-carbamoyl-3-[(4-fluorophenyl)amino]-1H-pyrazol-1-yl}-3-cyanopiperidine-1-carboxylate], the IC50 on JAK2 ([ATP] 8.5 μM) stood at 104 nM; at JAK1, 4 nM.

Consider `N#C[C@@H]1CN(C(=O)OCCCc2ccccc2)CC[C@H]1n1cc(C(N)=O)c(Nc2ccc(F)cc2)n1` (racemic) [Example 5-3, 3-phenylpropyl (3R,4R and 3S,4S)-4-{4-carbamoyl-3-[(4-fluorophenyl)amino]-1H-pyrazol-1-yl}-3-cyanopiperidine-1-carboxylate], for which the IC50 on JAK2 ([ATP] 8.5 μM) is 1010 nM; at JAK1, 44 nM.

Turning to `N#C[C@@H]1CN(C(=O)OC2COC2)CC[C@H]1n1cc(C(N)=O)c(Nc2ccc(F)cc2)n1` (racemic) [Example 5-5, oxetan-3-yl (3R,4R and 3S,4S)-4-{4-carbamoyl-3-[(4-fluorophenyl)amino]-1H-pyrazol-1-yl}-3-cyanopiperidine-1-carboxylate], the IC50 on JAK2 ([ATP] 8.5 μM) is 185 nM; at JAK1, 12 nM.

`CN1CCC(COC(=O)N2CC[C@@H](n3cc(C(N)=O)c(Nc4ccc(F)cc4)n3)[C@H](C#N)C2)CC1` (racemic) [Example 5-7, (1-methylpiperidin-4-yl)methyl (3R,4R and 3S,4S)-4-{4-carbamoyl-3-[(4-fluorophenyl)amino]-1H-pyrazol-1-yl}-3-cyanopiperidine-1-carboxylate]: the IC50 was determined as 1090 nM on JAK2 ([ATP] 8.5 μM) and 23 nM at JAK1.

As for `N#C[C@@H]1CN(C(=O)OCC2(N)CC2)CC[C@H]1n1cc(C(N)=O)c(Nc2ccc(F)cc2)n1` (racemic) [Example 5-8, (1-aminocyclopropyl)methyl (3R,4R and 3S,4S)-4-{4-carbamoyl-3-[(4-fluorophenyl)amino]-lH-pyrazol-1-yl}-3-cyanopiperidine-1-carboxylate], the values for the IC50 at JAK2 ([ATP] 8.5 μM) and at JAK1 were 703 nM and 13 nM, respectively.

With `N#C[C@@H]1CN(C(=O)OCCN2CCCC2)CC[C@H]1n1cc(C(N)=O)c(Nc2ccc(F)cc2)n1` (racemic) [Example 5-19, 2-pyrrolidin-1-ylethyl (3R,4R and 3S,4S)-4-{4-carbamoyl-3-[(4-fluorophenyl)amino]-1H-pyrazol-1-yl}-3-cyanopiperidine-1-carboxylate], the values for the IC50 on JAK2 ([ATP] 8.5 μM) and on JAK1 were 1100 nM and 22 nM, respectively.

As for `N#C[C@@H]1CN(C(=O)OCC(F)(F)CO)CC[C@H]1n1cc(C(N)=O)c(Nc2ccc(F)cc2)n1` (racemic) [Example 5-20, 2,2-difluoro-3-hydroxypropyl (3R,4R and 3S,4S)-4-{4-carbamoyl-3-[(4-fluorophenyl)amino]-1H-pyrazol-1-yl}-3-cyanopiperidine-1-carboxylate], the results for the IC50 on JAK2 ([ATP] 8.5 μM) and on JAK1 were 106 nM and 5 nM, respectively.

Take `CN(C)CC(C)(C)COC(=O)N1CC[C@@H](n2cc(C(N)=O)c(Nc3ccc(F)cc3)n2)[C@H](C#N)C1` (racemic) [Example 5-21, 3-(dimethylamino)-2,2-dimethylpropyl (3R,4R and 3S,4S)-4-{4-carbamoyl-3-[(4-fluorophenyl)amino]-1H-pyrazol-1-yl}-3-cyanopiperidine-1-carboxylate]: the results for the IC50 on JAK2 ([ATP] 8.5 μM) and on JAK1 were greater than 1500 nM and 88 nM, respectively.

With `CN1CCC(OC(=O)N2CC[C@@H](n3cc(C(N)=O)c(Nc4ccc(F)cc4)n3)[C@H](C#N)C2)CC1` (racemic) [Example 5-26, 1-methylpiperidin-4-yl (3R,4R and 3S,4S)-4-{4-carbamoyl-3-[(4-fluorophenyl)amino]-1H-pyrazol-1-yl}-3-cyanopiperidine-1-carboxylate], the IC50 is greater than 1500 nM on JAK2 ([ATP] 8.5 μM) and 58 nM on JAK1.

Take `COCCOC(=O)N1CC[C@@H](n2cc(C(N)=O)c(Nc3ccc(F)cc3)n2)[C@H](C#N)C1` (racemic) [Example 5-29, 2-methoxyethyl (3R,4R and 3S,4S)-4-{4-carbamoyl-3-[(4-fluorophenyl)amino]-1H-pyrazol-1-yl}-3-cyanopiperidine-1-carboxylate]: the figures for the IC50 at JAK2 ([ATP] 8.5 μM) and at JAK1 were 202 nM and 9 nM, respectively.

For `N#C[C@@H]1CN(C(=O)OC(CF)CF)CC[C@H]1n1cc(C(N)=O)c(Nc2ccc(F)cc2)n1` (racemic) [Example 5-31, 2-fluoro-1-(fluoromethyl)ethyl (3R,4R and 3S,4S)-4-{4-carbamoyl-3-[(4-fluorophenyl)amino]-1H-pyrazol-1-yl}-3-cyanopiperidine-1-carboxylate], the IC50 was 133 nM at JAK2 ([ATP] 8.5 μM) and 6 nM on JAK1.

With `CN(C)C(=O)c1ccc(Nc2nn([C@H]3COCC[C@@H]3C#N)cc2C(N)=O)cc1` (single isomer, unassigned) [Example 9-34, 1-[(3R,4S or 3S,4R)-4-cyanotetrahydro-2H-pyran-3-yl]-3-{[4-(dimethylcarbamoyl)phenyl]amino}-1H-pyrazole-4-carboxamide], the IC50 at JAK2 ([ATP] 8.5 μM) was 0.2 nM.

With `N#C[C@@H]1CS(=O)(=O)C[C@H]1n1cc(C(N)=O)c(Nc2ccc(F)cc2)n1` (single isomer, unassigned) [Example 12-1, 1-((3S,4R or 3R,4S)-4-Cyano-1,1-dioxidotetrahydrothiophen-3-yl)-3-((4-fluorophenyl)amino)-1H-pyrazole-4-carboxamide], the IC50 at JAK2 ([ATP] […]) was greater than 1500 nM.

On to `N#C[C@@H]1CS(=O)(=O)C[C@H]1n1cc(C(N)=O)c(Nc2ccc(F)cc2)n1` (single isomer, unassigned) [Example 12-2, 1-((3S,4R or 3R,4S)-4-Cyano-1,1-dioxidotetrahydrothiophen-3-yl)-3-((4-fluorophenyl)amino)-1H-pyrazole-4-carboxamide], for which the IC50 at JAK2 ([ATP] […]) is 16 nM.

One may read the IC50 as the concentration that inhibits the measured activity by half.

The record behind these values is patent US9394282B2, “Pyrazole carboxamides as Janus kinase inhibitors” (Merck Sharp & Dohme Corp., priority 2011, dated 2016).
